Data reported in ChEMBL document CHEMBL1138218, “Structure-activity relationship studies of ethyl 2-amino-6-bromo-4-(1-cyano-2-ethoxy-2-oxoethyl)-4H-chromene-3-carboxylate (HA 14-1), an antagonist for antiapoptotic Bcl-2 proteins to overcome drug resistance in cancer” (J Med Chem, 2006).

How the values were obtained:
[1] = target: T1, Apoptosis regulator Bcl-2 (Homo sapiens, UniProt P10415); experiment: Growth inhibition of Jurkat cell overexpressing Bcl2; type: functional, cell-based
Jurkat = experiment: Growth inhibition of Jurkat cell; type: functional; conditions: Homo sapiens
[2] = Ratio of GI50 for Jurkat cells overexpressing Bcl2 or BclXL to normal Jurkat cells; type: functional, Homo sapiens
Bcl-2-like protein 1 [3] = target: T2, Bcl-2-like protein 1 (Homo sapiens, UniProt Q07817); experiment: Growth inhibition of Jurkat cell overexpressing BclXL; type: functional, cell-based
Bcl-2-like protein 2 = target: T3, Bcl-2-like protein 2 (Homo sapiens, UniProt Q92843); experiment: Binding affinity to Bclw by FP assay
T3 sequence (Q92843 whole entry): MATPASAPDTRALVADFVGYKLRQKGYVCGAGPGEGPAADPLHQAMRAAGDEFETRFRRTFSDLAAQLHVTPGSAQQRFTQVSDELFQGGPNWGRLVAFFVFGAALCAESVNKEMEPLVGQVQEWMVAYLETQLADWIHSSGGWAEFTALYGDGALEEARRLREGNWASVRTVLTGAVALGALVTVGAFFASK

Bcl-2-like protein 1 [4] = target: T2, Bcl-2-like protein 1; experiment: Binding affinity to BclXL by FP assay
[5] = target: T1, Apoptosis regulator Bcl-2; experiment: Binding affinity to Bcl2 by FP assay
NCI-H460 = experiment: Growth inhibition of NCI-H460 cell; type: functional; conditions: Homo sapiens

T2 sequence (Q07817 whole entry): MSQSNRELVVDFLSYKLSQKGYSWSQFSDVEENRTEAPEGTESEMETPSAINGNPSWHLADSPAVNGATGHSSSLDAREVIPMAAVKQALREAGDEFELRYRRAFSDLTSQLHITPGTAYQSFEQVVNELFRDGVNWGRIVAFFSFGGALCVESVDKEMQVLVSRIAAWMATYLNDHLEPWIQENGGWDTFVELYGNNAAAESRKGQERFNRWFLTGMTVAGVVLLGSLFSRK
T1 sequence (P10415 whole entry): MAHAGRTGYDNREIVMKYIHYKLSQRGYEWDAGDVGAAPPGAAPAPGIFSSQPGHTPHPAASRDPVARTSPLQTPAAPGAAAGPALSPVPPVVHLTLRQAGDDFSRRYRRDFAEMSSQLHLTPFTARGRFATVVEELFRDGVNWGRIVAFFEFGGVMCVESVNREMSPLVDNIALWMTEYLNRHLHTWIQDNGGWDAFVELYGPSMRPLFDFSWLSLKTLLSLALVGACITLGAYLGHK

| SMILES | GI50 [1] | GI50 (Jurkat) | GI50 (Bcl-2-like protein 1 [3]) | Ki (Bcl-2-like protein 2) | Ki (Bcl-2-like protein 1 [4]) | Ki [5] | GI50 (NCI-H460) | RatioGI50 [2] |
| --- | --- | --- | --- | --- | --- | --- | --- | --- |
| Nc1nc2[nH]cnc2c(=S)[nH]1 [THIOGUANINE] | 147 µM | 13 µM | 183 µM |  |  |  |  | >11 |
| CCOC(=O)C1=C(N)Oc2ccc(C)cc2C1C(C#N)C(=O)OCC (configuration not stated) | 37 µM | 29 µM | 41 µM | 199 µM | 191 µM | 309 µM | 102 µM | <1.41 |
| CC(=O)O[C@H]1C(=O)[C@@]2(C)[C@H]([C@H](OC(=O)c3ccccc3)[C@]3(O)C[C@H](OC(=O)[C@H](O)[C@@H](NC(=O)c4ccccc4)c4ccccc4)C(C)=C1C3(C)C)[C@]1(OC(C)=O)CO[C@@H]1C[C@@H]2O [PACLITAXEL] | > 10 µM | < 0.01 µM | > 10 µM |  |  |  |  | >100 |
| CCOC(=O)C1=C(N)Oc2ccccc2C1C(C#N)C(=O)OCC (configuration not stated) | 94 µM | 66 µM | 99 µM | 697 µM | 570 µM | 531 µM | 157 µM | <1.5 |
| CCOC(=O)C1=C(N)Oc2ccc(CC)cc2C1C(C#N)C(=O)OCC (configuration not stated) | 12 µM | 13 µM | 13 µM | 121 µM | 135 µM | 210 µM | 79.1 µM | <1 |
| COc1cccc2c1C(=O)c1c(O)c3c(c(O)c1C2=O)C[C@@](O)(C(=O)CO)C[C@@H]3O[C@H]1C[C@H](N)[C@H](O)[C@H](C)O1 [DOXORUBICIN] | 26 µM | 0.21 µM | 24 µM |  |  |  |  | >100 |

The next molecules have a lower GI50 [1] than those just listed; values first:

| GI50 [1] | GI50 (Jurkat) | GI50 (Bcl-2-like protein 1 [3]) | Ki (Bcl-2-like protein 2) | Ki (Bcl-2-like protein 1 [4]) | Ki [5] | GI50 (NCI-H460) | SMILES | RatioGI50 [2] |
| --- | --- | --- | --- | --- | --- | --- | --- | --- |
| 5.7 µM | 5.2 µM | 6.3 µM | 56.7 µM | 70.7 µM | 128 µM | 24.9 µM | CCCc1ccc2c(c1)C(C(C#N)C(=O)OCC)C(C(=O)OCC)=C(N)O2 (configuration not stated) | <1.21 |
| 4.2 µM | 3.9 µM | 4.1 µM | 41.2 µM | 52.9 µM | 112 µM | 15.9 µM | CCOC(=O)C1=C(N)Oc2ccc(-c3ccccc3)cc2C1C(C#N)C(=O)OCC (configuration not stated) | <1.07 |
| 3.8 µM | 3.5 µM | 3.9 µM | 30.8 µM | 36.5 µM | 128 µM | 11 µM | CCOC(=O)C1=C(N)Oc2ccc(C3CCCC3)cc2C1C(C#N)C(=O)OCC (configuration not stated) | <1.1 |
| 0.99 µM | 0.8 µM | 0.99 µM | 20.3 µM | 21.7 µM |  | 0.16 µM | CCOC(=O)C1=C(N)Oc2ccc(-c3ccc(C(C)(C)C)cc3)cc2C1C(C#N)C(=O)OCC (configuration not stated) | <1.24 |
